Values joined by “and” are separate entries in the source; they are usually repeats but may differ in a detail not shown here. Equal values may be shown once. Read-outs that look alike come from different tables or passages of the source.
Assays:
[1] = Hydrophobicity by relative elution time from a C18 HPLC column; assay type: physicochemical; conditions: for HPLC retention time (min) Condition 1: acetonitrile / ammonium acetate buffer pH 6.4 with 5 mM TBAP gradient, 0.8 mL/min; for HPLC retention time (min) Condition 1 / HPLC retention time (min) Condition 2: column temperature 35° C.; for HPLC retention time (min) Condition 2: acetonitrile/water gradient 50:50 to 90:10, 1 mL/min; for HPLC retention time (min) Condition 2, column temperature 70° C.: acetonitrile/water gradient, 1 mL/min, **column temperature was set at 70° C.
Source text: To increase the penetration and retention of a drug released from a device such as a stent into the vascular wall or wall of other vessel or tissue, several drugs were modified to increase their hydrophobicity. […] […] The longer the elution time, the more hydrophobic the compound.

[2] = test system: MX-1 mammary tumor cells; test: Cytotoxic activity on MX-1 mammary tumor cells in culture; conditions: for IC50: read-out: Cytotoxicity on MX-1, IC50
[3] = target: albumin (Homo sapiens, UniProt P02768); test: Binding of compounds to albumin
Chain of albumin (P02768 25-609, species assumed): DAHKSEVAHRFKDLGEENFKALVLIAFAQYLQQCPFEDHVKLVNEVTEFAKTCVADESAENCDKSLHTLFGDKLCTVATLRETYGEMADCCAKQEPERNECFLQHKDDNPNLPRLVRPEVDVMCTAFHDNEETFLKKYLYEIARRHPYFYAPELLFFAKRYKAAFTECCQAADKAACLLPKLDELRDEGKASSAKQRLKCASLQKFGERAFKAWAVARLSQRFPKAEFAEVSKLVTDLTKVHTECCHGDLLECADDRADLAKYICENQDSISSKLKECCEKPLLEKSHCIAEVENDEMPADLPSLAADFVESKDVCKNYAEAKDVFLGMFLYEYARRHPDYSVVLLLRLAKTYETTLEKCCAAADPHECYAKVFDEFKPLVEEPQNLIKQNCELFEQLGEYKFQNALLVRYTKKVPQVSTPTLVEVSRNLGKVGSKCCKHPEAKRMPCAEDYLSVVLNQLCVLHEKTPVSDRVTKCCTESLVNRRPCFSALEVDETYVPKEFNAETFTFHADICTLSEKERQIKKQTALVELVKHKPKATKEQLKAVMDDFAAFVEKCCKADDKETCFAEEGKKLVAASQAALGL

[4] = test system: MX-1 mammary tumor cells
[5] = MX-1 mammary tumor cells in culture, drug itself
[6] = smaller number indicates greater binding affinity, read-out: Albumin Binding, KD

Molecule	HPLC retention time (min) Condition 1 [1]	IC50 [2, 5]	HPLC retention time (min) Condition 2 [1]	other results
CCCC(=O)Oc1ccc2nc3c(cc2c1)Cn1c-3cc2c(c1=O)COC(=O)[C@@]2(CC)OC(=O)CCC [Compound 8]	21.9 min	152 µM		
CCC1(OC(=O)CNC(=O)OC(C)(C)C)C(=O)OCc2c1cc1n(c2=O)Cc2cc3cc(OC(=O)CNC(=O)OC(C)(C)C)ccc3nc2-1 (centres unmarked) [Compound 11]	20.9 min	221 µM		
CCCCCCCCCCCCCCCC(=O)Oc1ccc2nc3c(cc2c1)Cn1c-3cc2c(c1=O)COC(=O)C2(CC)OC(=O)CCCCCCCCCCCCCCC (centres unmarked) [Compound 22]			30.5 min	Cytotoxicity on MX-1, IC50 [2, 5]: Inactive
CC[C@@]1(O)C(=O)OCc2c1cc1n(c2=O)Cc2cc3cc(O)ccc3nc2-1 [Compound 32]	6.1 min		1.9 min	IC50 [2]: 13 µM; Kd [3]: 1200 µM
CCC1(OC(=O)c2ccccc2)C(=O)OCc2c1cc1n(c2=O)Cc2cc3cc(OC(=O)c4ccccc4)ccc3nc2-1 (centres unmarked) [Compound 14]	22.9 min	740 µM		
CCC(=O)Oc1ccc2nc3c(cc2c1)Cn1c-3cc2c(c1=O)COC(=O)C2(CC)OC(=O)CC (centres unmarked) [Compound 7]	19.8 min	45 µM		HPLC retention time (min) Condition 2, column temperature 70° C. [1]: 6.1** min
COc1cc2c(c(OC)c1OC)-c1ccc(SC)c(=O)cc1[C@@H](NC(=O)C1CCCC(C(=O)N[C@H]3CCc4cc(OC)c(OC)c(OC)c4-c4ccc(SC)c(=O)cc43)C1)CC2 (some centres unmarked) [Compound 27]				Kd [3]: 52 µM
CCc1c2c(nc3ccc(O)cc13)-c1cc3c(c(=O)n1C2)COC(=O)[C@]3(O)CC [Compound 6]	7.8 min	267 µM	2.2 min	Kd [3, 6]: 484 µM
CCCCCCCCCCCCCC(=O)Oc1ccc2nc3c(c(CC)c2c1)Cn1c-3cc2c(c1=O)COC(=O)[C@@]2(CC)OC(=O)CCCCCCCCCCCCC [Compound 18]			31.2 min	Cytotoxicity on MX-1, IC50 [2, 5]: Inactive
C=CCNC1=C2C[C@@H](C)C[C@H](OC)[C@H](O)[C@@H](C)/C=C(\C)[C@H](OC(N)=O)[C@@H](OC)/C=C\C=C(/C)C(=O)NC(=CC1=O)C2=O [Compound 17AAG, 17AAG, reference compound]		3 µM	14.9 min	
CCCCCCCCCCCCCCCCCC(=O)Oc1ccc2nc3c(c(CC)c2c1)Cn1c-3cc2c(c1=O)COC(=O)[C@@]2(CC)OC(=O)CCCCCCCCCCCCCCCCC [Compound 20]			30.6 min	Cytotoxicity on MX-1, IC50 [2, 5]: Inactive
CCC1(OC(=O)C(C)C)C(=O)OCc2c1cc1n(c2=O)Cc2cc3cc(OC(=O)C(C)C)ccc3nc2-1 (centres unmarked) [Compound 9]	22.0 min	23 µM		
CCCCCCCCCC(=O)Oc1ccc2nc3c(c(CC)c2c1)Cn1c-3cc2c(c1=O)COC(=O)[C@@]2(CC)OC(=O)CCCCCCCCC [Compound 17]		2000 µM	31.2 min	
COc1cc2c(c(OC)c1OC)-c1ccc(SC)c(=O)cc1[C@@H](NC(=O)CCCCCCCCC(=O)N[C@H]1CCc3cc(OC)c(OC)c(OC)c3-c3ccc(SC)c(=O)cc31)CC2 [Compound 25]				IC50 [2]: 155 µM; Kd [3]: 30 µM
COC1C=CC=C(C)C(=O)NC2=CC(=O)C(N3CC3C)=C(CC(C)CC(OC)C(O)C(C)C=C(C)C1OC(N)=O)C2=O (centres unmarked) [Compound 30, 17-METHYLAZIRIDINYL-17-DEMETHOXYGELDANAMYCIN]			11.1 min and 11.6 min	IC50 [4]: 0.3 µM
CCC(=O)Oc1ccc2nc3c(c(CC)c2c1)Cn1c-3cc2c(c1=O)COC(=O)[C@@]2(CC)OC(=O)CC [Compound 15]	20.8 min	28 µM		HPLC retention time (min) Condition 2, column temperature 70° C. [1]: 9.3** min

Molecule	HPLC retention time (min) Condition 1 [1]	IC50 [2, 5]	HPLC retention time (min) Condition 2 [1]	other results
CC(=O)OC1C(=O)C2(C)C(O)CC3OCC3(OC(C)=O)C2C(OC(=O)c2ccccc2)C2(O)CC(OC(=O)C(OC(=O)c3ccccc3)C(NC(=O)c3ccccc3)c3ccccc3)C(C)=C1C2(C)C (centres unmarked) [Compound 1]		30 µM		Kd [3, 6]: 103 µM
CCc1c2c(nc3ccc(OC(=O)CCCC(C)CC)cc13)-c1cc3c(c(=O)n1C2)COC(=O)[C@@]3(CC)OC(=O)CCCC(C)CC (some centres unmarked) [Compound 21]		295 µM	40.2 min	
COc1cc2c(c(OC)c1OC)-c1ccc(SC)c(=O)cc1[C@@H](NC(=O)CCNC(=O)N[C@H]1CCc3cc(OC)c(OC)c(OC)c3-c3ccc(SC)c(=O)cc31)CC2 [Compound 24]				IC50 [2]: 37 µM; Kd [3]: 109 µM
CCC1(OC(=O)COC)C(=O)OCc2c1cc1n(c2=O)Cc2cc3cc(OC(=O)COC)ccc3nc2-1 (centres unmarked) [Compound 12]	14.1 min	372 µM		
CC(=O)O[C@H]1C(=O)[C@@]2(C)[C@H]([C@H](OC(=O)c3ccccc3)[C@]3(O)C[C@H](OC(=O)[C@H](O)[C@@H](NC(=O)c4ccccc4)c4ccccc4)C(C)=C1C3(C)C)[C@]1(OC(C)=O)CO[C@@H]1C[C@@H]2O [Paclitaxel, reference compound]			10.5 min	Kd [3, 6]: 39.8 µM
CCC1(OC(=O)CN)C(=O)OCc2c1cc1n(c2=O)Cc2cc3cc(OC(=O)CN)ccc3nc2-1 (centres unmarked) [Compound 13]	6.1 min	242 µM		
COc1cc2c(c(OC)c1OC)-c1ccc(SC)c(=O)cc1[C@@H](NC(=O)c1cncc(C(=O)N[C@H]3CCc4cc(OC)c(OC)c(OC)c4-c4ccc(SC)c(=O)cc43)c1)CC2 [Compound 26]				IC50 [2]: 361 µM; Kd [3]: 28 µM
COC1=C2C[C@@H](C)C[C@H](OC)[C@H](O)[C@@H](C)/C=C(\C)[C@H](OC(N)=O)[C@@H](OC)/C=C\C=C(/C)C(=O)NC(=CC1=O)C2=O [Geldanamycin, reference compound]		0.5 µM	10.8 min	
CO[C@H]1C[C@@H]2CC[C@@H](C)[C@@](O)(O2)C(=O)C(=O)N2CCCC[C@H]2C(=O)O[C@H]([C@H](C)C[C@@H]2CC[C@@H](O)[C@H](OC)C2)CC(=O)[C@H](C)/C=C(\C)[C@@H](O)[C@@H](OC)C(=O)[C@H](C)C[C@H](C)/C=C/C=C/C=C/1C [Rapamycin, reference compound]		27 µM		Kd [3, 6]: 102 µM
CC(=O)OC12COC1CC(O)C1(C)C(=O)C(O)C3=C(C)C(OC(=O)C(OC(=O)c4ccccc4)C(NC(=O)OC(C)(C)C)c4ccccc4)CC(O)(C(OC(=O)c4ccccc4)C21)C3(C)C (centres unmarked) [Compound 2, 2′ BENZOYL DOCETAXEL]				IC50 [2]: 38 µM; Kd [3, 6]: 8.8 µM
CCCCCCCCCCCC(=O)Oc1ccc2nc3c(c(CC)c2c1)Cn1c-3cc2c(c1=O)COC(=O)[C@@]2(CC)OC(=O)CCCCCCCCCCC [Compound 19]			31.2 min	Cytotoxicity on MX-1, IC50 [2, 5]: Inactive
CCCCCC(=O)Oc1ccc2nc3c(cc2c1)Cn1c-3cc2c(c1=O)COC(=O)C2(CC)OC(=O)CCCCC (centres unmarked) [Compound 16]		4 µM		
CCCCCC(=O)Oc1ccc2nc3c(cc2c1)Cn1c-3cc2c(c1=O)COC(=O)[C@@]2(CC)OC(=O)CCCCC [Compound 10, CAMPTOTHECIN 10,20-DI O HEXONATE]	25.3 min	8 µM		
CC(=O)O[C@@]12CO[C@@H]1C[C@H](O)[C@@]1(C)C(=O)[C@H](O)C3=C(C)[C@@H](OC(=O)[C@H](O)[C@@H](NC(=O)OC(C)(C)C)c4ccccc4)C[C@@](O)([C@@H](OC(=O)c4ccccc4)[C@H]21)C3(C)C [Docetaxel, reference compound]			9.0 min	Kd [3, 6]: 5.45 µM
Benzoyl rapamycin [Compound 23]				HPLC retention time (min) Condition 2, column temperature 70° C. [1]: 32.6** min
